Measured values taken from patent publication US6395729B1, “Use of pyridazino[4,5-b]indole-1-acetamide derivatives for preparing medicines for treating diseases related to the dysfunction of peripheral benzodiazepin receptors” (Sanofi-Synthelabo, priority 1999, dated 2002).

Legend:
[1] = tested on: motoneurons of the facial nucleus; assay: Survival of the motoneurons after cutting of the facial nerve in 4-day-old rats; format: in vivo, rat; conditions: 7 d treatment, i.p. route
Method: Test of Survival of the Motoneurons After Cutting of the Facial Nerve in 4-day-old Rats
After lesioning of the facial nerve in immature rats, the motoneurons of the facial nucleus undergo neuronal death by apoptosis. The evaluation of neuronal survival is carried out using histological and neuronal counting methods.
4-Day-old immature rats are anaesthetized with pentobarbital (3 mg/kg by the i.p. route). The right facial nerve is exposed and cut, where it leaves the stylomastoid foramen. After regaining consciousness, the young rats are returned to their mothers and treated, for 7 d, by one or two daily administrations, by the oral or intraperitoneal route, at doses ranging from 1 to 10 mg/kg. 7 d after the lesioning, the animals are decapitated and the brains frozen in isopentane at −40° C. The facial nucleus is cut using a cryostat, into 10 μm sections, in its entirety. The motoneurons are stained with cresyl violet and counted with the aid of the Histo™ software (Biocom™).

[2] = tested on: kidneys (renal ischaemia-reinfusion); assay: Renoprotective effects, renal artery occlusion-reinfusion in rats; format: in vivo, rat; conditions: 3 mg/kg i.p. 60 min before the occlusion
Method: Study of the Renoprotective Effects
The experiment is carried out on Sprague-Dawley male rats (Charles River France) of 270 to 330 g. The animals are anaesthetized with pentobarbital (60 mg/kg i.p.), intubated and artificially ventilated, their temperature is maintained between 37 and 38° C.
A 3 cm laparotomy is performed on the animal in dorsal decubitus, the right and left renal arteries are exposed and occluded for 30 min, and then the kidneys are reinfused under visual monitoring and the incision is closed. The serum creatinine and urea nitrogen levels are determined from blood samples collected in the orbital sinus, at D0 (before anaesthesia), and then at D1, D2, D3, D4, D8 (after 1 occlusion-reinfusion).
The compound to be studied, or its vehicle (Tween 80 at 2%) is administered at the dose of 3 mg/kg by the i.p. route 60 min before the occlusion.

[3] = tested on: hearts isolated from rabbits; assay: Cardioprotective effects on isolated rabbit hearts subjected to regional ischaemia and reinfusion; set-up: left ventricular pressure, percentage of preischaemic recovery / contracture during reinfusion / maximum and minimum dP/dt values and double frequency-pressure product: dose or concentration left out as unconfirmed
Method: Study of the Cardioprotective Effects
The cardioprotective effects were studied on hearts isolated from rabbits subjected to a regional ischaemia and to a reinfusion. The size of infarction as well as the recovery of the contractile function upon reinfusion were measured.
New Zealand rabbits (2.3 to 2.5 kg, ESD France) are anaesthetized with a ketamine-xylasine mixture and heparinized. The heart is removed and rapidly infused by the retrograde aortic route at a pressure of 75 mmHg with a Krebs Henselheit-type solution. A balloon is introduced into the left ventricle and a telediastolic pressure of 5 mmHg is applied. After a stabilizing period of 20 min, the compound to be studied (1 mM) or the vehicle is added to the infusion solution 15 min before the ischaemia and during the entire duration of the experiment. The regional ischaemia is created by complete ligation of the left coronary artery for 30 min, the heart then being reinfused for 2 h.
The ventricular pressure, heart rate and coronary output parameters are monitored during the whole experiment.
After the reinfusion, the coronary artery is again occluded and China ink is infused in order to delimit the area at risk. Transverse sections are then prepared and incubated in a 1% triphenyltetrazolium solution so as to measure the size of the infarction. The quantification of the necrosed area, expressed as % of the area at risk, is obtained by means of image-analysing software.

How did the “increase in neuronal survival” value [1] turn out when `CN(C)C(=O)Cc1nn(-c2ccccc2)c(=O)c2c1c1ccc(Cl)cc1n2C` [Compound No. 1, 7-Chloro-N,N,5-trimethyl-4-oxo-3-phenyl-3,5-dihydro-4H-pyridazino[4,5-b]indole-1-acetamide] was run?
The value was 31%.

And the “reduction of creatininaemia compared with the vehicle” value ([2]; at D3)?
Its value is 56%.

And the “reduction of uraemia compared with the vehicle” value ([2]; at D3)?
Its value is 49%.

And the “mortality in the animals” value ([2]; dead/total animals)?
The value was 1/12.

And the contracture during reinfusion [3]?
Its contracture during reinfusion is “reduces the contracture”.

What about the “left ventricular pressure, percentage of preischaemic recovery” value ([3]; after 2 h of reinfusion) of the same compound?
The value was 65%.

What about the “size of the infarction (necrosed area, expressed as % of the area at risk)” value ([3]; compound 1 mM in infusion solution, 30 min ischaemia, 2 h reinfusion) of the same compound?
The value was 22±3.3 % of the area at risk.

And the “reduction in the size of the infarction” value ([3]; compound 1 mM in infusion solution, 30 min ischaemia, 2 h reinfusion, vs controls, p<0.01)?
The value was 47%.

What about the “maximum and minimum dP/dt values and double frequency-pressure product” value ([3]; during reinfusion) of the same compound?
The value was “significantly restores”.
